{
  "source": "patent US20050019288A1",
  "about": "“Alcohol-based aerosol deodorant composition comprising at lease one zinc salicylate or a derivative thereof” (priority 2003, published 2005)",
  "key": {"[1]": {"experiment": "Efficacy test: odor of incubated underarm sweat judged by a panel of experts against control sweat", "set-up": "species or system human", "details": "37° C, average of 18 hours and 24 hours, compared with control sweat", "description": "Underarm sweat was collected from six volunteers in a sauna, the samples of individual sweat, stored in ice for a few hours, are at that point virtually odorless. They were subsequently mixed together and divided into 1 ml aliquots. The active agents were added to these aliquots, which were then incubated in an oven at 37° C. After these samples were incubated for 18 and 24 hours, a panel of experts evaluated the intensity of the odor compared with a control sample, which was 1 ml of sweat incubated without addition of active agent.\nThe results are expressed below as a percentage of change in the unpleasantness of the odor compared with this control sweat sample (average of the percentages of change at 18 hours and 24 hours).\nThe active agents (A) and (B) correspond to zinc salicylate trihydrate from Bernardy Chimie and to the active agent (C) containing Triclosan."}, "Corynebacterium xerosis": {"system": "Corynebacterium xerosis", "experiment": "Bactericidal activity of a composition on microorganisms involved in underarm odor", "format": "cell-based", "details": "summary in text for the active agent", "description": "The test described herein allows a quantitative determination of the bactericidal activity of a composition on microorganisms under optimum growth conditions, i.e., microorganisms of the Corynebacterium xerosis type (Institut Pasteur Collection No. 5216) grown on soybean tryptocasein agar on a slope.\nOn the day before the test, 32 g of soybean tryptocasein broth were placed in a pill bottle and incubated at 35° C. On the day of the test, 4 g of the test composition were added and the mixture was homogenized using a Vortex mixer.\nA product-free growth control was prepared under the same conditions in order to check that the microorganisms were under favorable growth conditions throughout the duration of the test.\nFor the preparation of the inoculum, five days before the start of the test, the two bacterial strains were subcultured on a suitable medium. Incubation was performed for 5 days at 35° C. On the day of the test, the slope was washed with about 9 ml of diluent: the suspension obtained has a titre of […] (counting was performed). […]\nThe colonies were counted on the dishes containing more than 20 and less than 200 colonies. […]\nThe bactericidal activity of each of the formulations 2, 3 and 4 with respect to the strain Corynebacterium xerosis was measured and compared with a formulation without active agent."}},
  "data": [
    {"molecule": "Oc1cc(Cl)ccc1Oc1ccc(Cl)cc1Cl", "note": "[(C), 2,4,4′-trichloro-2′-hydroxydiphenyl ether, reference compound]", "values": [
      {"measurement": "% change in the unpleasantness of odor", "setting": "[1]; 0.8 mg AM/ml of sweat", "value": "−55", "unit": "%"}
    ]},
    {"molecule": "zinc salicylate trihydrate [(A)]", "values": [
      {"measurement": "% change in the unpleasantness of odor", "setting": "[1]; 1 mg AM/ml of sweat", "value": "−45", "unit": "%"},
      {"measurement": "% change in the unpleasantness of odor", "setting": "[1]; 5 mg AM/ml of sweat", "value": "−48", "unit": "%"}
    ]},
    {"molecule": "Zinc salicylate", "values": [
      {"measurement": "antibacterial activity on the Corynebacterium xerosis strains", "setting": "Corynebacterium xerosis", "value": "low (1 Log of reduction: low)"}
    ]}
  ]
}
